SMILES	melting point
O=c1c2ccccc2[nH]c2c(OCCCCN(CCO)CCO)cccc12	124 to 126 °C
CC(=O)N1CC=C(c2cc(C)c(O)cc2C)CC1	220 °C
CC(C)[C@H]1C(=O)OCN1C(=O)OC(C)(C)C	43 to 45 °C
CC(=O)c1ccc(N2CCN(CCC(=O)O)CC2)cc1	204 to 206 °C
O=C1CCC(N2Cc3c(O)cccc3C2=O)C(=O)N1 (centres undefined)	296 °C
CCCCCCCCCCCCCCCCCC(CCC(=O)O)[N+](=O)[O-] (centres undefined)	55 to 56 °C
Cc1cc2c(Br)ccc([N+](=O)[O-])c2cn1	146 °C
CS(=O)(=O)c1ccc(-c2[nH]c3ccccc3c2-c2ccc(Cl)cc2)cc1	198 to 200 °C
COC(=O)c1ccc(N2C(=O)CCC2(CBr)COC(=O)c2ccccc2)c([N+](=O)[O-])c1 (centres undefined)	183 to 184 °C
O=C(O)CNC[C@H]1O[C@H](c2ccccc2Cl)c2cc(Cl)ccc2N(Cc2ccccc2)C1=O (relative stereo)	224 to 226 °C
CCN=C(NC#N)NCCSCc1ncccc1Br	123 to 124 °C
O=C(C=Cc1cccc(Oc2ccccc2)c1)NCCCCCC(=O)NO	113 to 115 °C
CC(C)n1c(C=O)c(-c2ccc(F)cc2)c(-c2ccccc2)c1C(=O)Nc1ccccc1	222 to 224 °C
c1coc(Cn2c(NC3CCN(CCNc4nccs4)CC3)nc3ccccc32)c1	153 °C
O=C(NCC1Cc2cc(Br)cc3[nH]c(=O)c(=O)n1c23)c1ccccc1 (centres undefined)	180 to 182 °C
CCN1CCCC1CNC(=O)c1cc(N(C#N)S(C)(=O)=O)ccc1OC (centres undefined)	50 to 54 °C
CCOP(=O)(OCC)C(CNc1nc(C)cc(Oc2ccc(Cl)cc2Cl)n1)P(=O)(OCC)OCC	76 to 77 °C
CCCN(CCC)C1Cc2cc3c(cc2C1)C(=O)NC3 (centres undefined)	206 to 208 °C
O=[N+]([O-])c1ccc(/C=C/c2ccc(O)cc2)cc1	210 °C
Cn1c(C(F)(F)F)cc(=O)n(-c2cc(OS(C)(=O)=O)c(Cl)cc2F)c1=O	176 to 178 °C

SMILES	melting point
Fc1ccc(C(c2ccc(F)cc2)N2CCN(CC=C3CCc4ccccc43)CC2)cc1	138 to 142 °C
CCOC(=O)C(=Cc1cccn2cc(Br)nc12)N=[N+]=[N-]	149 to 151 °C
CCC(=O)Oc1ccc2c(c1)CCC1C2CCC2(C)C1CC(O)C2OC(=O)CC (centres undefined)	105 °C
COC(=O)NC(C)=NS(=O)(=O)NC(C)C	193 to 196 °C
CC(C)CCC(=O)N[C@@H]1N=C(c2ccccc2)c2ccccc2N(C)C1=O	123 to 125 °C
O=C(O)c1ccc(CCCC2SCC(=O)N2CCC2(O)CCCC2)cc1 (centres undefined)	149 to 150 °C
C=C(C)C[C@H]1CC(C)=CCN1c1ccccc1	55 to 57 °C
Cc1ccc(SC(Cl)=C(C(Cl)=C(Cl)Cl)[N+](=O)[O-])cc1	110 to 111 °C
CN1C2C=C(c3ccc(F)cc3)CC1CC2 (centres undefined)	62 to 63 °C
CC1(C)C(=O)C(C)(C)c2cc3[nH]c(S(=O)Cc4ccccn4)nc3cc21 (centres undefined)	201 to 203 °C
CCN(CC)Cn1cnc2c1c(=O)n(C)c(=O)n2C	114 to 115 °C
CC1(C)CC(O)C(C)(C)c2cc(C=O)ccc21 (centres undefined)	76 to 78 °C
Clc1ccc(N2CC3CCC(C2)N3Cc2ccccc2)cc1	115 to 117 °C
Cc1ccccc1C(=O)CN1C(=O)C(NC(=O)Nc2cccc(-c3nnn[nH]3)c2)N=C(c2ccccc2F)c2cccc(C)c21 (centres undefined)	216 to 220 °C
CCOC(=O)C(=O)CC(=O)C(=CN(C)C)c1ccccc1	110 °C
O=C(O)CCCCCCCCNC(=O)C1Cc2ccccc2N1S(=O)(=O)c1ccc(-c2cccc(C(F)(F)F)c2)cc1 (centres undefined)	60 °C
Fc1ccc(Cn2c(NC3CCN(CCCCNc4nc5cnccc5[nH]4)CC3)nc3ccccc32)cc1	228 °C
CCC(C)N1CCc2cnc3ccnn3c21 (centres undefined)	199 °C
c1ccc(C2=NOC3(CCNCC3)C2)cc1	115 °C
O=C(c1ccccc1)C(O)O	85 to 85.5 °C

SMILES	melting point
Cc1c(NC(=O)c2ccc(-c3ccc(F)cc3)cc2)ccc2cc(CN(C(C)C)C(C)C)cnc12	179 to 180 °C
COC(=O)C1(C)CCCC2(C)c3c(OC)cc(C(C)C)c(OC)c3CCC12 (centres undefined)	133 to 135 °C
Cn1ncc(N)c1C(N)=O	158 to 160 °C
Cc1cc(N)ccc1NCCNC(N)=O	143 °C
CCCCCCCCC=CCCCCCCCC(=O)NCCCSc1ccncc1	50 to 50.5 °C
O=C(O)c1cccc2c1CCc1cc(F)ccc1S2	200 to 202 °C
Cc1ccc(S(=O)(=O)Oc2ccccc2NC(=O)c2cccc3[nH]ccc23)cc1	135 °C
N#Cc1ccc(-c2nc(C(=O)Nc3nccs3)c(-c3ccc(F)cc3)[nH]2)cc1	> 250 °C
N#CCCOCc1cc(Cl)nc(Cl)c1	65.5 °C
O=C(O)C(=O)c1cccc(Cl)c1	59 to 62 °C
COc1cccc(OC)c1-c1cc(C(=O)NC2(C(=O)O)C3CC4CC(C3)CC2C4)nn1-c1ccc(NC(=O)CCN2CCCCC2)cc1C (centres undefined)	240 °C
CC(C)(C)NCC(O)c1ccc(O)c(NC=O)c1 (centres undefined)	195 to 196 °C
CCOCc1cccc2[nH]cc(C(COC)C(C(=O)OCC)[N+](=O)[O-])c12 (centres undefined)	118 to 120 °C
Cc1nc(Cl)c2c(n1)c(C)nn2C	91 to 93 °C
COc1cc(C2=NNC(=O)Cc3cc4c(cc32)OCO4)ccc1N	147 to 150 °C
CN(C)CC1CN(C)C(=S)c2cccnc2O1 (centres undefined)	178 to 179 °C
OCCCn1c(C2CCCCC2)nc2cc(Cl)ccc21	95 °C
CC(C)(C)c1cc(Cl)ccc1N1CCN(C(=O)C(=O)O)CC1	154 to 155 °C
COc1ccc(C2(O)C=CNC(=O)N2)cc1OC1CC2CCC1C2 (centres undefined)	167 to 169 °C
CNC(=O)NCC1OC(n2cc(C)c(=O)[nH]c2=O)CC1O (centres undefined)	238 to 239 °C

Results, then the compound that gave them:

melting point	SMILES
157 to 161 °C	CCOC(=O)C1=C(COCCn2c(C)nc3ccccc32)NC(C)=C(C(=O)NC(C)(C)C)C1c1ccccc1Cl (centres undefined)
104 to 105 °C	Cc1nn(C)c(OCC(=O)C(C)(C)C)c1C(=O)c1ccc(Cl)cc1Cl
141 to 143 °C	Clc1cnn2c(-c3ccccn3)ccnc12
129 to 130 °C	CC(C)Oc1ccc(CCC(=O)NS(=O)(=O)c2ccccc2)c(Oc2ncc(C(F)(F)F)cc2Cl)c1
93.5 to 95 °C	Cc1cccc2c1nc(COc1ccc(Cl)cc1)n2CCC(Cc1ccccc1)C(=O)N1CCCCC1 (centres undefined)
216 °C	Brc1ccc(C2CCCc3cncn32)cc1 (centres undefined)
112 to 114 °C	CCC(COc1ccccc1COc1cccc2ccc(=O)[nH]c12)OC(C)=O (centres undefined)
198 to 200 °C	CCCc1nc2c(N)nc3cc(OCc4ccc(F)cc4)ccc3c2n1CC(C)C
117 to 118 °C	CCC(=O)Oc1cc(OC)cc(OC)c1C(=O)C=Cc1ccc(OC)cc1
81 to 82 °C	CCCCOc1ccc(CCCOc2nn(CC)cc2CC(=O)O)c(Oc2ccc(C(F)(F)F)cn2)c1
213 to 215 °C	Cn1c(COc2ccc(CC3SC(=O)NC3=O)cc2)nc2ccc(Oc3ccc(NC(=O)c4cccnc4)cc3)cc21 (centres undefined)
160 °C	COc1ccc(S(=O)(=O)N2C(=O)C(c3ccccc3OC)(N3Cc4ccccc4C[C@H]3C(=O)N(C)C)c3cc(Cl)c(C)cc32)c(OC)c1 (some centres undefined)
188 to 189 °C	O=C1NC(=O)C(Cc2ccc(OCCN3CCOCC3)cc2)S1 (centres undefined)
> 300 °C	CCOC(=O)c1ccc(-c2cc3c(Nc4ccc(F)c(Cl)c4)ncnc3[nH]2)cc1
> 160 °C	CCCc1nc(C(O)C(C)(C)C)c(C(N)=O)n1Cc1ccc(-c2ccccc2C(=O)O)cc1 (centres undefined)
174 to 176 °C	COCCCn1nnnc1-c1cc(-c2cc(C(C)C)ccc2OC)c(O)cc1O
208 °C	COc1cc(CN2C(=O)c3ccsc3CC2C(=O)O)cc(OC)c1OC (centres undefined)
156 to 158 °C	O=c1c2cc(F)ccc2nc(NCc2ccccn2)n1-c1ccccc1Cl
99 to 101 °C	CC(C)c1cccc(C(C)C)c1NC(=O)CNC(C)c1ccccn1 (centres undefined)
98 to 100 °C	Cc1c(C(=O)Nc2ccc(OCC(C)(C)C)c(C#N)c2)cnn1CCO

melting point	SMILES
124 to 128 °C	COc1cc2c(c3c1OC(C)(C)C3)C(c1cccc(NC(=O)Cc3ccncc3)c1)=NC(C)(C)C2
160 to 161 °C	FC(F)(F)c1ccc(-n2ccc3cnccc32)c(Cl)c1
207 to 209 °C	c1ccc(CNc2nc3cc(-c4ccccc4)nnc3c3ccccc23)cc1
221 to 231 °C	O=C(NC(=O)c1c(Cl)cccc1Cl)Nc1ccc(-c2ccccc2)cn1
269 °C	CC(C)c1ccc(C(=O)C2=C(O)C(=O)N(c3ccc(OCc4ccccc4)nn3)C2c2ccc(OC(F)(F)F)cc2)cc1 (centres undefined)
182 to 183 °C	Cn1cc(-c2ccc(=O)n(Cc3cccc(-c4ncc(OCCO)cn4)c3)n2)cn1
112 °C	CC1(C)CC(=O)C(SCc2ccc(F)cc2)=C(O)C1
203 to 205 °C	CCCCn1c(=O)c2nn(S(=O)(=O)c3cccc4cccnc34)cc2n(CCCC)c1=O
216 to 220 °C	CCn1cc(C2(c3cccc(-c4cncc(F)c4)c3)N=C(N)N(C)C2=O)cn1 (centres undefined)
146 to 148 °C	CCC(OCC(F)(F)F)c1ccc(Cl)c2nc3n(c12)CCCN3c1ccc(Cl)cc1Cl (centres undefined)
168 to 171 °C	CCOc1ccc(S(=O)(=O)N2c3ccc(Cl)cc3C(O)(c3ccccc3Cl)C2C(=O)N(C)CC(=O)OC)cc1 (centres undefined)
99.5 to 102 °C	COc1ccc2cc(C(C)C(=O)OCCC3(C)CCc4c(C)c(O)c(C)c(C)c4O3)ccc2c1 (centres undefined)
142 to 144 °C	Cn1c(=O)oc2cc(CCO)cnc21
97 °C	CCc1ccc2c(c1)C(O)Cc1ccc(F)cc1S2 (centres undefined)
206 to 208 °C	CCOC(=O)C(Cc1cc2ccccc2[nH]c1=O)NC(=O)c1ccc(OC)cc1 (centres undefined)
94 to 96 °C	COc1ccc(CNc2c(Cl)cnn(C)c2=O)cc1
59 °C	CO/C=C(/C(=O)OC)c1ccccc1COc1nc(C(F)(F)F)sc1C
57 to 59 °C	COC(=O)C(Cl)Cc1ccc(O)cc1 (centres undefined)
270 to 272 °C	COC(=O)c1cn2c(n1)COc1ccc([N+](=O)[O-])cc1-2

— a melting point compilation (Tetko et al.; mined from patent text by program, amines drawn as free bases though some values may be those of a salt)
